These results are taken from patent publication US5563156A, “Thrombin inhibitors” (Merrell Pharmaceuticals Inc., priority 1991, dated 1996).

What all share (type): biochemical
Assay [1] deals with HUMAN LUNG TRYPTASE
As to the kind of experiment: In vitro inhibition of human lung tryptase, rate constants by progress curve analysis. The note with it: nonlinear regression (ENZFITTER). On the procedure: Using standard in vitro methodology for determining inhibitory activity of tryptase (Journal of Biological Chemistry, Vol. 261, Jun. 5, pp. 7322-7379, 1986), the following results have been obtained:
^a Rate constants were determined by progress curve analysis using a
nonlinear regression program (ENZFITTER)

Assay [2] relates to human plasma. The experiment in a line: Anticoagulant effect in human plasma, thrombin time (TT). The source says:
(§1) Anticoagulant data may be represented as follows:

In assay [3] the test system is human plasma. As to the kind of experiment: Anticoagulant effect in human plasma, activated partial thromboplastin time (aPTT).
From the text: as §1

In assay [1], `Cl.Cl.N=C(N)NCCCC(NC(=O)[C@@H]1CCCN1C(=O)[C@H]1Cc2ccccc2CN1)C(=O)C(F)(F)C(F)(F)F.O` (stereo partly drawn) [D-3-TIC--Pro--Arg--CF2 CF3, L-Prolinamide, N-[2-[3-[(aminoiminomethyl)amino]propyl]-3,3,4,4,4-pentafluoro-2-oxobutyl]-1-D-[(1,2,3,4-tetrahydro-3-isoquinolinyl)carbonyl]-, dihydrochloride, hydrate] gave a Ki of 0.075 µM, a koff of 0.00034 s⁻¹ and a kon of 4700 ± 200 M⁻¹ s⁻¹.

Molecule `CC(=O)O.F.N=C(N)NCCCC(NC(=O)[C@@H]1CCCN1C(=O)[C@H](N)Cc1ccccc1)C(=O)C(F)(F)F.O` (stereo partly drawn) [D-Phe--Pro--Arg--CF3, L-Prolinamide, N-D-phenylalanyl-N-[1-[3-[(amino]iminomethyl)amino]propyl]-3,3,3-trifluoro-2-oxopropyl]-, hydrofluoride, acetate, hydrate] had a Ki in assay [1] of 0.5 µM.

In assay [1], `CC(=O)O.F.N=C(N)NCCCC(NC(=O)[C@@H]1CCCN1C(=O)[C@H](N)Cc1ccccc1)C(=O)C(F)(F)F.O` (stereo partly drawn) [D-Phe--Pro--Arg--CF3] displayed a koff of 0.00015 s⁻¹ and a kon of 290 ± 20 M⁻¹ s⁻¹. For the same molecule, in assay [2], the “ID2 TT (amount required for doubling the clotting time)” value was 43 µM. The “ID2 a PTT (amount required for doubling the clotting time)” value in assay [3] is 148 µM.

Turning to “L-Prolinamide, N-methyl-D-phenylalanyl-N-[1-[3-[(aminoiminomethyl) amino]propyl]-3,3,3-trifluoro-2-oxopropyl]-, dihydrochloride, hydrate [D-CH3 Phe--Pro--Arg--CF3]”, in assay [1], affinity was put at a Ki of 0.08 µM, the koff came to 1.5e-05 s⁻¹ and the kon was determined as 200 ± 10 M⁻¹ s⁻¹. The “ID2 TT (amount required for doubling the clotting time)” value in assay [2] worked out at 108 µM. The “ID2 a PTT (amount required for doubling the clotting time)” value in assay [3] turned out to be 218 µM.

For orientation: Ki means the equilibrium dissociation constant of an inhibitor or competing ligand from its target. A high value points to weaker binding. The term koff denotes the rate constant with which the complex falls apart. By kon is commonly meant the rate constant with which the complex forms. Higher therefore signals fast association.
